Test results reported in patent EP0034481A1, “2-Methyl-5-thiazole-methylamine and carboxamide derivatives” (Grigg, Ronald Ernest, priority 1980, dated 1981).

How the values were obtained:
[1] = Solubility in solvents (qualitative); type: physicochemical
[2] = tested on: Diazepam cell receptor; assay: Central nervous system activity: adhesion to specific cell receptor surfaces (diazepam cell receptor); type: binding
Protocol: Various compounds of this invention have been tested for their biological activity. Peripheral activity was determined by contraction of the guinea pig ileum/frog rectus while central nervous system activity was determined by adhesion to specific cell receptor surfaces.

[3] = LD50 (acute toxicity); details: in vivo
[4] = tested on: guinea pig ileum; assay: Peripheral activity: contraction of the guinea pig ileum, relative to nicotine; type: cell-based
Protocol: Peripheral activity was determined by contraction of the guinea pig ileum/frog rectus while central nervous system activity was determined by adhesion to specific cell receptor surfaces.

| Structure (SMILES) | soluble in water [1] | Diazepam cell receptor adhesion [2] | soluble in ethanol [1] | LD50 [3] | soluble in chloroform ([1]; chloroform) | soluble in polyethylene glycol ([1]; polyethylene glycol) | soluble in dilute hydrochloric acid [1] | Guinea Pig ileum test (% wrt nicotine) [4] |
| --- | --- | --- | --- | --- | --- | --- | --- | --- |
| Cc1nnc(C(=O)N2CCOCC2)o1 [Example 13, 5-methyl-2-(morpholinocarbonyl)oxadiazole] | soluble | – | – | – | – | – | – | – |
| Cc1nnc(C(=O)N2CCCC2)o1 [Example 12, 5-methyl-2-(pyrrolidinocarbonyl)oxadiazole] | soluble | – | – | – | – | – | – | – |
| Cc1ncc(C(=O)N2CCCC2)s1 [Example 1, 2-Methyl-5-(pyrrolidinocarbonyl)thiazole] | soluble | 0.55 mM | soluble | – | – | – | – | – |
| Cc1ncc(CN2CCCCC2)s1 [Example 19, 2-methyl-S-(piperidinomethyl)thiazole] | soluble | 1.0 mM | soluble | 7 to 8 mg/kg | – | – | – | – |
| Cc1ncc(C(=O)N2CCN(C(=O)c3cnc(C)s3)CC2)s1 [Example 5, N,N'-bis(2-methyl-5-thiazolecarbonyl)piperazine] | – | – | – | – | soluble | soluble | – | – |
| Cc1ncc(CN2CCOCC2)s1 [Example 20, 2-methyl-5-(morpholinomethyl)thiazole] | soluble | 11 mM | soluble | – | – | – | soluble | – |
| Cc1ncc(C(=O)NC23CC4CC(CC(C4)C2)C3)s1 [Example 7, N-adamantyl 2-methyl-5-thiazolecarboxamide] | soluble | – | soluble | – | – | – | soluble | 0 % wrt nicotine |
| Cc1nnc(C(=O)N2CCCCC2)o1 [Example 11, 2-methyl-5-(piperidinocarbonyl)oxadiazole] | soluble | – | – | – | – | – | – | – |
| c1ccc(-c2ncc(CN3CCCC3)s2)cc1 [Example 17, 2-phenyl-5-(pyrroli-dinomethyl)thiazole] | – | – | soluble | – | – | – | soluble | – |
| Cc1ncc(C(=O)N2CCOCC2)s1 [Example 3, 2-methyl-S-(morpholinocarbonyl)thiazole] | soluble | 1.0 mM | soluble | – | – | – | soluble | – |
| Cc1ncc(CN2CCCC2)s1 [Example 18, 2-methyl-5-(pyrrolidinomethyl)thiazole] | soluble | 4.4 mM | soluble | 7 to 8 mg/kg | – | – | – | – |
| CCN(CC)Cc1cnc(C)s1 [Example 21, 2-methyl-5-(diethylaminomethyl)thiazole] | soluble | 5.5 mM | soluble | 80 to 100 mg/kg | – | – | – | – |
| Cc1ncc(C(=O)N2CCCCC2)s1 [Example 2, 2-methyl-5-(piperidincrcarbonyl)thiazole] | soluble | 0.49 mM | soluble | – | – | – | – | – |
| c1ccc(-c2ncc(CN3CCCCC3)s2)cc1 [Example 24, 2-phenyl-(5-piperidinomethyl)thiazole] | – | – | soluble | – | – | – | soluble | – |
| CCN(CC)C(=O)c1cnc(C)s1 [Example 6, N,N-diethyl 2-methyl-5-thiazolecarboxamide] | soluble | 3.2 mM | soluble | – | – | – | – | – |
